# Assay results taken from patent publication US20250197420A1, “MACROCYCLIC COMPOUNDS, COMPOSITIONS, AND METHODS OF USING THEREOF” (Sionna Therapeutics Inc., priority 2022, published 2025).
# Key:
# [1] = test system: Primary human bronchial epithelial cells from a ΔF508 homozygous CF donor (CF-HBE cells); experiment: TECC24 recording of CFTR-mediated transepithelial chloride transport, AUC fold over benchmark VX-809 @10 μM; type: cell-based; settings: 48 hours incubation, AUC of forskolin-stimulated IEQ
# Method: The effects of a test agent on CFTR-mediated transepithelial chloride transport is measured using TECC24 recording analysis. Test agents are solubilized in DMSO. Solubilized test agents are mixed with incubation medium containing DMEM/F12, Ultroser G (0.5%; Crescent Chemical, catalog #67042), Hyclone Fetal Clone II (2%; GE Healthcare, catalog #SH30066.02), bovine brain extract (0.25%; Lonza, catalog #CC-4098), insulin ([…]), IL-13 (10 ng/mL), hydrocortisone (20 nM), transferrin ([…]), triiodothyronine (500 nM), ethanolamine (250 nM), epinephrine (1.5 μM), phosphoethanolamine (250 nM), and retinoic acid (10 nM). Primary human bronchial epithelial cells from a ΔF508 homozygous CF donor (CF-HBE cells; from University of North Carolina Cystic Fibrosis Tissue Procurement Center), grown on Transwell HTS 24-well cell culture inserts (Costar, catalog #3378), are exposed to test agents or controls dissolved in incubation medium. The CF-HBE cells are cultured at 36.5° C. for 48 hours before TECC24 recordings are performed in the presence or absence of test agent, a positive control or vehicle (DMSO).
# Following incubation, the transwell cell culture inserts containing the test agent or control-treated CF-HBE cells are loaded onto a TECC24 apparatus (TECC v7 or MTECC v2; EP Design) to record the transepithelial voltage (VT) and resistance (TEER) using 4 AgCl electrodes per well configured in current-clamp mode. The apical and basolateral bath solutions both contain (in mM) 140 NaCl, 5 KCl, 2 CaCl2), 1 MgCl2, 10 Hepes, and 10 glucose (adjusted to pH 7.4 with NaOH). To inhibit basal Na+ absorption, the ENaC inhibitor benzamil (10 μM) is added to the bath. Then, the adenylate cyclase activator, forskolin (10 μM), is added to the bath to activate CFTR. The forskolin-stimulated Cl− transport is halted by addition of CFTR inhibitor-172 (20 μM) to the bath at the end of the experiment to confirm specificity. VT and TEER recordings are digitally acquired at routine intervals using TECC or MTECC software (EP Design). VT and TEER are transformed into equivalent transepithelial Cl− current (IEQ), and the Area Under the Curve (AUC) of the IEQ time course between forskolin and CFTR inhibitor-172 addition is generated using Excel (Microsoft). Efficacy is expressed as the ratio of the test agent AUC divided by vehicle AUC. EC50s based on AUC are generated using the non-linear regression log(agonist) vs. response function in Prism software (Graphpad) with HillSlope fixed=1.
# If a test agent increases the AUC of the forskolin-stimulated IEQ relative to VX-809 in CF-HBE cells, and this increase is inhibited by CFTR inhibitor-172, then the test agent is considered a CFTR corrector. TECC assay efficacy is expressed as the ratio of the test agent AUC divided by VX-809 AUC. As set forth in Table 2 below, a TECC value less than 3 is marked “A”; a value between 3 and 6 is marked “B”; a value between 6 and 20 is marked “C”.
# [2] = target: T1, Purified recombinant NBD1 (Homo sapiens, UniProt P13569); experiment: Aggregation analysis using differential static light scattering (DSLS): thermal stability of NBD1; type: binding; settings: NBD1 0.2 mg/ml; Tagg of compound well minus average Tagg of DMSO control wells
# T1 construct: Purified recombinant NBD1 was produced using previously described methods; made in house
# T1 sequence (P13569 423-646 limits assumed): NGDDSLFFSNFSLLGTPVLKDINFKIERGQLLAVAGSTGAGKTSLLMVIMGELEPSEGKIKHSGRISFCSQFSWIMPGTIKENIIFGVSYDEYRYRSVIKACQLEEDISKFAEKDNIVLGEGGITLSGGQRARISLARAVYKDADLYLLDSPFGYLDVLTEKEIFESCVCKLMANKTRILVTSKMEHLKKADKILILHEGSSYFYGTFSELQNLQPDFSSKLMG
# Outline: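 ΔTagg is compound-well aggregation temperature minus the DMSO-control mean, each Tagg being the inflection point of light scattering measured by DSLS during a 1 °C/min ramp up to 70 °C. The protein was purified NBD1 (0.2 mg/ml) in pH 7.6 buffer containing 2 mM ATP, 5 mM MgCl2 and 1% glycerol.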
smiles,measurement,setting,value
"CC1(C)CCC(C)(c2cccc(CCC(=O)O)c2)c2cnc([nH]2)-c2cc(ccc2F)Oc2c(F)cc3[nH]ccc3c2CCOC(=O)NC1 (stereo not drawn) [Compound 92, 3-[3-(23,29-Difluoro-6,9,9-trimethyl-12-oxo-13,25-dioxa-3,11,20,31-tetrazapentacyclo[24.3.1.12,5.016,24.017,21]hentriaconta-1(30),2,4,16(24),17(21),18,22,26,28-nonaen-6-yl)phenyl]propanoic acid]",TECC (test agent AUC divided by VX-809 AUC),[1],C (a value between 6 and 20 is marked “C”)
same,DSLS (ΔTagg),[2],C (a value greater than 10 °C and less than or equal to 25 °C is marked “C”)
"O=C(O)CCc1cccc(C2CCCCNC(=O)CCc3c(c(F)cc4[nH]ccc34)Oc3ccc(F)c(c3)-c3ncc2[nH]3)c1 (stereo not drawn) [Compound 3, 3-[3-(22,28-Difluoro-12-oxo-24-oxa-3,11,19,30-tetrazapentacyclo-[23.3.1.12,5.015,23.016,20]triaconta-1(29),2,4,15,17,20,22,25,27-nonaen-6-yl)phenyl]-propanoic acid]",TECC (test agent AUC divided by VX-809 AUC),[1],B (a value between 3 and 6 is marked “B”)
same,DSLS (ΔTagg),[2],C (a value greater than 10 °C and less than or equal to 25 °C is marked “C”)
"COCCONC(=O)CCc1cccc(C2(C)CCCC(C)(C)CN(C)C(=O)CCc3c(c(F)cc4[nH]ccc34)Oc3ccc(F)c(c3)-c3ncc2[nH]3)c1 (single isomer, unassigned) [Compound 56, 3-[3-(23,29-difluoro-6,10,10,12-tetramethyl-13-oxo-25-oxa-3,12,20,31-tetrazapentacyclo[24.3.1.12,5.016,24.017,21]hentriaconta-1(30),2,4,16,18,21,23,26,28-nonaen-6-yl)phenyl]-N-(2-methoxyethoxy)propanamide]",TECC (test agent AUC divided by VX-809 AUC),[1],A (a TECC value less than 3 is marked “A”)
same,DSLS (ΔTagg),[2],A (an ΔTagg value less than or equal to 5 °C is marked “A”)
"C[C@@H](Cc1cccc([C@@]2(C)CCCCC(C)(C)CN(C)C(=O)Cc3c(c(F)cc4[nH]ccc34)Oc3ccnc(c3)-c3nc2nn3C)c1)C(=O)O [Compound 121, (2S)-3-[3-[(6R)-23-fluoro-3,6,11,11,13-pentamethyl-14-oxo-25-oxa-3,4,13,20,29,31-hexazapentacyclo[24.3.1.12,5.016,24.017,21]hentriaconta-1(30),2(31),4,16,18,21,23,26,28-nonaen-6-yl]phenyl]-2-methyl-propanoic acid]",TECC (test agent AUC divided by VX-809 AUC),[1],A (a TECC value less than 3 is marked “A”)
same,DSLS (ΔTagg),[2],C (a value greater than 10 °C and less than or equal to 25 °C is marked “C”)
"CN1CCC(C)(C)CCC(C)(c2cccc(CCC(=O)O)c2)c2cnc([nH]2)-c2cc(ccc2F)Oc2c(F)cc3[nH]ccc3c2CCC1=O (stereo not drawn) [Compound 29, 3-[3-(23,29-Difluoro-6,9,9,12-tetramethyl-13-oxo-25-oxa-3,12,20,31-tetrazapentacyclo[24.3.1.12,5.016,24.017,21]hentriaconta-1(30),2,4,16,18,21,23,26,28-nonaen-6-yl)phenyl]propanoic acid]",TECC (test agent AUC divided by VX-809 AUC),[1],B (a value between 3 and 6 is marked “B”)
same,DSLS (ΔTagg),[2],C (a value greater than 10 °C and less than or equal to 25 °C is marked “C”)
"CC1(C)CCCCC(C)(c2cccc(CCC(=O)O)c2)c2cnc([nH]2)-c2cc(ccc2F)Oc2c(F)cc3[nH]ccc3c2COC(=O)N1 (single isomer, unassigned) [Compound 93A, 3-[3-(23,29-difluoro-6,11,11-trimethyl-13-oxo-14,25-dioxa-3,12,20,31-tetrazapentacyclo[24.3.1.12,5.016,24.017,21]hentriaconta-1(30),2,4,16,18,21,23,26,28-nonaen-6-yl)phenyl]propanoic acid]",TECC (test agent AUC divided by VX-809 AUC),[1],B (a value between 3 and 6 is marked “B”)
same,DSLS (ΔTagg),[2],A (an ΔTagg value less than or equal to 5 °C is marked “A”)
